Test results taken from PubChem BioAssay AID328 (DTP/NCI, 2004).
Several values for one entry are separate records, joined by “and”; a condition that tells them apart may be missing. Equal values may be shown once. Inconclusive results and toxic doses are left out. Rule for the calls: active = survival T/C of 150% or more; inactive = T/C below 125% in these data.

Tested on: BDF1 mice, P388 leukemia ip, median survival T/C
Test: NCI In Vivo Anticancer Drug Screen. Data for tumor model P388 Leukemia (intraperitoneal) in B6D2F1 (BDF1) mice
Conditions: endpoint: median survival time, higher = longer survival
Summary of the method: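 Compound-treated tumour-bearing mice were compared with vehicle-treated controls. Survival was recorded, and the value is the treated-group measurement divided by the control-group measurement (T/C).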

[1] = dose: 200.0 mg/kg/injection, schedule: Q01DX009 (ip), vehicle: saline with Tween-80
[2] = dose: 50.0 mg/kg/injection, schedule: Q01DX009 (ip), vehicle: saline with Tween-80
[3] = dose: 100.0 mg/kg/injection, schedule: Q01DX009 (ip), vehicle: saline with Tween-80
[4] = dose: 100.0 mg/kg/injection, schedule: Q04DX003 (ip), vehicle: saline with Tween-80
[5] = dose: 200.0 mg/kg/injection, schedule: Q04DX003 (ip), vehicle: saline with Tween-80
[6] = dose: 400.0 mg/kg/injection, schedule: Q04DX003 (ip), vehicle: saline with Tween-80
[7] = dose: 75.0 mg/kg/injection, schedule: Q01DX009 (ip), vehicle: Klucel (hydroxypropylcellulose) (HPC)
[8] = dose: 100.0 mg/kg/injection, schedule: Q04DX003 (ip), vehicle: saline
[9] = dose: 200.0 mg/kg/injection, schedule: Q04DX003 (ip), vehicle: saline
[10] = dose: 25.0 mg/kg/injection, schedule: Q01DX009 (ip), vehicle: saline
[11] = dose: 50.0 mg/kg/injection, schedule: Q01DX009 (ip), vehicle: saline
[12] = dose: 12.5 mg/kg/injection, schedule: Q01DX009 (ip), vehicle: saline with Tween-80
[13] = dose: 25.0 mg/kg/injection, schedule: Q01DX009 (ip), vehicle: saline with Tween-80
[14] = dose: 150.0 mg/kg/injection, schedule: Q04DX003 (ip), vehicle: saline sonified

Measured: T/C

Oc1c(Cl)cc(Cl)cc1C1Nc2ccccc2-n2cccc21 (stereo unspecified)
inactive: [1] 88 % of control

N#Cc1ccc(/C=N/NC(N)=S)s1
inactive: [2] 97 % of control | [3] 102 % of control | [1] 97 % of control

Cn1c(=O)[nH]c(=O)c2nc(-c3cccnc3)c(-c3ccncc3)nc21
inactive: dose: 100.0 mg/kg/injection, schedule: Q04DX002 (ip), vehicle: saline with Tween-80 101 % of control | dose: 200.0 mg/kg/injection, schedule: Q04DX002 (ip), vehicle: saline with Tween-80 99 % of control | dose: 400.0 mg/kg/injection, schedule: Q04DX002 (ip), vehicle: saline with Tween-80 110 % of control

C1CC[N-]CC1.C1CC[N-]CC1.[Cl][Pt+2]([Cl])([Cl])[Cl]
inactive: [3] 95 % of control | [1] 90 % of control

COc1cccc(/C=N\O)c1
inactive: [4] 104 % of control | [5] 100 % of control | [6] 104 % of control

CCNC(=S)N/N=C\C=N/NC(=S)NCC
inactive: dose: 75.0 mg/kg/injection, schedule: Q01DX009 (ip), vehicle: saline with Tween-80 90 % of control | dose: 300.0 mg/kg/injection, schedule: Q01DX009 (ip), vehicle: saline with Tween-80 91 % of control

CC(=O)NC(=O)NC(C)=O
inactive: dose: 100.0 mg/kg/injection, schedule: Q01DX001 (ip), vehicle: saline 91 % of control | dose: 200.0 mg/kg/injection, schedule: Q01DX001 (ip), vehicle: saline 91 % of control | dose: 400.0 mg/kg/injection, schedule: Q01DX001 (ip), vehicle: saline 91 % of control

O=C1c2ccccc2CCCC12OC2c1ccccc1 (stereo unspecified)
inactive: dose: 75.0 mg/kg/injection, schedule: Q04DX003 (ip), vehicle: Klucel (hydroxypropylcellulose) (HPC) 95 % of control | dose: 150.0 mg/kg/injection, schedule: Q04DX003 (ip), vehicle: Klucel (hydroxypropylcellulose) (HPC) 104 % of control | dose: 300.0 mg/kg/injection, schedule: Q04DX003 (ip), vehicle: Klucel (hydroxypropylcellulose) (HPC) 90 % of control

COc1cc2c(c(OC)c1OC)-c1ccc(SCc3ccccc3)c(=O)cc1[C@@H](NC(C)=O)CC2
inactive: dose: 8.2 mg/kg/injection, schedule: Q01DX009 (ip), vehicle: Klucel (hydroxypropylcellulose) (HPC) 117 % of control
active: dose: 12.5 mg/kg/injection, schedule: Q01DX009 (ip), vehicle: Klucel (hydroxypropylcellulose) (HPC) 170 % of control

COc1cc2c(cc1OC)-c1c3c(cc4c1[C@H](C2)N(C)CC4)OCO3
inactive: dose: 37.5 mg/kg/injection, schedule: Q01DX009 (ip), vehicle: Klucel (hydroxypropylcellulose) (HPC) 97 % of control | [7] 98 % of control | dose: 150.0 mg/kg/injection, schedule: Q01DX009 (ip), vehicle: Klucel (hydroxypropylcellulose) (HPC) 98 % of control

C/C(=C/c1cc2c(cc1Br)OCO2)[N+](=O)[O-]
inactive: dose: 25.0 mg/kg/injection, schedule: Q04DX003 (ip), vehicle: saline with Tween-80 98 % of control | dose: 50.0 mg/kg/injection, schedule: Q04DX003 (ip), vehicle: saline with Tween-80 98 % of control | [4] 100 % of control and 106 % of control | [5] 115 % of control

CCOC(=O)Cn1ccc(=O)[nH]c1=O
inactive: dose: 75.0 mg/kg/injection, schedule: Q04DX003 (ip), vehicle: saline 100 % of control | dose: 150.0 mg/kg/injection, schedule: Q04DX003 (ip), vehicle: saline 100 % of control | dose: 300.0 mg/kg/injection, schedule: Q04DX003 (ip), vehicle: saline 100 % of control

C(/C=C/C=C/Nc1ccc(N=Nc2ccccc2)cc1)=Nc1ccc(N=Nc2ccccc2)cc1
inactive: [8] 90 % of control | [9] 104 % of control | dose: 400.0 mg/kg/injection, schedule: Q04DX003 (ip), vehicle: saline 95 % of control

CC(C)C1NC(=O)C2CCCN2C1=O (stereo unspecified)
inactive: [3] 100 % of control | [4] 109 % of control | [1] 100 % of control | [5] 113 % of control | dose: 400.0 mg/kg/injection, schedule: Q01DX009 (ip), vehicle: saline with Tween-80 123 % of control | [6] 118 % of control

CC(=O)Oc1cc2c(cc1OC(C)=O)C(Br)CCCC2=O (stereo unspecified)
inactive: dose: 75.0 mg/kg/injection, schedule: Q04DX003 (ip), vehicle: other 95 % of control | dose: 150.0 mg/kg/injection, schedule: Q04DX003 (ip), vehicle: other 95 % of control | dose: 300.0 mg/kg/injection, schedule: Q04DX003 (ip), vehicle: other 109 % of control

CC1=NN(c2ccccc2)C(=O)C1C(=S)SC1CC(=O)NC1=O (stereo unspecified)
inactive: [2] 117 % of control | [3] 103 % of control | [1] 108 % of control

CC(=O)Nc1ccc(N2CCN=N2)cc1
inactive: dose: 12.5 mg/kg/injection, schedule: Q01DX009 (ip), vehicle: saline 110 % of control | [10] 95 % of control | [11] 105 % of control | [7] 104 % of control

CC#CC(=O)O
inactive: [12] 100 % of control | [13] 106 % of control | [2] 109 % of control | [3] 106 % of control

OC(CC1CCCCN1)c1ccccc1 (stereo unspecified)
inactive: [12] 99 % of control | [13] 99 % of control | [2] 94 % of control and 110 % of control

O=C(O)CCCCCCCCCCCCO
inactive: dose: 100.0 mg/kg/injection, schedule: Q04DX003 (ip), vehicle: Klucel (hydroxypropylcellulose) (HPC) 109 % of control | dose: 200.0 mg/kg/injection, schedule: Q04DX003 (ip), vehicle: Klucel (hydroxypropylcellulose) (HPC) 90 % of control | dose: 400.0 mg/kg/injection, schedule: Q04DX003 (ip), vehicle: Klucel (hydroxypropylcellulose) (HPC) 90 % of control

N[C@@H](Cc1ccc(O)c(O)c1)C(=O)O
inactive: dose: 50.0 mg/kg/injection, schedule: Q01DX010 (ip), vehicle: saline 92 % of control | dose: 100.0 mg/kg/injection, schedule: Q01DX010 (ip), vehicle: saline 96 % of control | dose: 200.0 mg/kg/injection, schedule: Q01DX010 (ip), vehicle: saline 100 % of control | dose: 400.0 mg/kg/injection, schedule: Q01DX010 (ip), vehicle: saline 107 % of control

COC1(C(C)(C)C)C=C(C)/C(=C2\C(=O)Oc3c2cc(C)cc3C(C)(C)C)O1 (stereo unspecified)
inactive: [2] 99 % of control | [3] 92 % of control | [1] 96 % of control

CCc1cc2c(cc1C(=O)/C=C\C(=O)O)C(C)(C)CCC2(C)C
inactive: dose: 2.5 mg/kg/injection, schedule: Q01DX009 (ip), vehicle: Klucel (hydroxypropylcellulose) (HPC) 102 % of control | dose: 5.0 mg/kg/injection, schedule: Q01DX009 (ip), vehicle: Klucel (hydroxypropylcellulose) (HPC) 99 % of control | dose: 10.0 mg/kg/injection, schedule: Q01DX009 (ip), vehicle: Klucel (hydroxypropylcellulose) (HPC) 100 % of control

CC[N+](C)(C)c1ncnc2nc[nH]c12
inactive: [10] 91 % of control | [11] 95 % of control | dose: 100.0 mg/kg/injection, schedule: Q01DX009 (ip), vehicle: saline 87 % of control and 91 % of control | [8] 104 % of control | dose: 200.0 mg/kg/injection, schedule: Q01DX009 (ip), vehicle: saline 95 % of control | [9] 104 % of control

Cc1csc2nc(-c3ccccc3)nc(Cl)c12
inactive: dose: 75.0 mg/kg/injection, schedule: Q04DX003 (ip), vehicle: saline sonified 105 % of control | [14] 120 % of control | dose: 300.0 mg/kg/injection, schedule: Q04DX003 (ip), vehicle: saline sonified 110 % of control

COc1cc(OC)c(NC(=S)Nc2cc(C)ccc2OC)cc1Cl
inactive: dose: 12.5 mg/kg/injection, schedule: Q01DX009 (ip), vehicle: DMSO 97 % of control | dose: 25.0 mg/kg/injection, schedule: Q01DX009 (ip), vehicle: DMSO 93 % of control

CN(C)c1ccc(/C=C2\C=Cc3ccccc32)cc1F
inactive: dose: 44.0 mg/kg/injection, schedule: Q04DX003 (ip), vehicle: saline sonified 90 % of control | dose: 66.0 mg/kg/injection, schedule: Q04DX003 (ip), vehicle: saline sonified 100 % of control | dose: 100.0 mg/kg/injection, schedule: Q01DX009 (ip), vehicle: saline sonified 104 % of control | dose: 100.0 mg/kg/injection, schedule: Q04DX003 (ip), vehicle: saline sonified 90 % of control | [14] 95 % of control | dose: 200.0 mg/kg/injection, schedule: Q01DX009 (ip), vehicle: saline sonified 100 % of control | dose: 200.0 mg/kg/injection, schedule: Q04DX003 (ip), vehicle: saline sonified 110 % of control | dose: 400.0 mg/kg/injection, schedule: Q01DX009 (ip), vehicle: saline sonified 104 % of control | dose: 400.0 mg/kg/injection, schedule: Q04DX003 (ip), vehicle: saline sonified 120 % of control
